Results taken from US6406917B1, “Methods and compositions for the use of apurinic/apyrimidinic endonucleases” (Advanced Research And Technology Institute, priority 1996, dated 2002).

Assays:
Assay type in all cases: cell-based, human
[1] = tested on: HL-60 cells; test: DNA fragmentation / apoptosis, fluorescein TUNEL assay; conditions: for % fluorescein positive (TUNEL): HL-60 + DMSO
Text: Over-expression of bcl-2 depresses the baseline apoptosis to less than 1% (FIG. 8). […] The high level expression of bcl-2 in HL-60-bcl-2 cells appears to be responsible for not only the block in apoptosis (Park et al., 1994), but also the failure to downregulate expression of APE with induction of differentiation. […] This leads to the conclusion that the decrease in expression of APE observed on Northern and Western blot (FIG. 6) in induced HL-60 cells is associated with programmed cell death.
(§1) To determine if the cells undergoing apoptosis were also the cells downregulating APE, double labeling experiments were performed on a 50:50 mix of untreated and RA treated (6 days, 10^−5 M) HL-60 cells (FIG. 9A). Cytocentrifuge preparations were stained for 1) fragmented DNA using fluorescein-dUTP in the TUNEL assay (FIG. 9C) and 2) APE using polyclonal rabbit anti-APE with a rhodamine labeled goat anti-rabbit secondary antibody (FIG. 9B). Cells undergoing apoptosis fluoresce ‘green’ and cells expressing APE fluoresce ‘red’. […] Conversely, TUNEL negative cells, not undergoing apoptosis, stained strongly positive for APE. Thus, HL-60 cells undergoing apoptosis appear to lose expression of APE.
(§2) The inventor further characterized the temporal decline in APE expression to see if it was an early event in programmed cell death or if the decline coincided with fragmentation of DNA (TUNEL assay); the inventor assayed APE expression and DNA fragmentation on cytospun preparations of cells after exposure to DMSO. The expression of APE started to fall with fewer rhodamine positive cells after 2 days of DMSO while statistically significant evidence of fragmented DNA was not apparent until after 4-6 days (Table 7, FIG. 8). A similar pattern was observed, but not as rapid a loss of APE expression, after exposure to RA or PMA. Thus the decrease in APE expression associated with programmed cell death appears to be an early event occurring before the final pathologic consequences of DNA fragmentation in apoptosis.

[2] = tested on: HL-60 cells; test: APE expression on cytospun cells, rhodamine-labeled anti-APE staining; conditions: for % rhodamine positive (APE): HL-60 + DMSO
Experimental: as §1, §2

[3] = tested on: HL-60 cells; test: Western blot of APE protein expression after differentiation induction
Experimental: (§3) FIG. 6A and FIG. 6B: Expression of APE in HL-60 cells. FIG. 6A, HL-60 cells at 0, 2, 4, and 6 days after treatment with 10^−5 M RA or 1.25% DMSO, Western blot (top) probed with an affinity purified polyclonal rabbit anti-APE antibody which detects the 37,000 Daltons human APE. Northern blots (middle and bottom) probed for the 1.6 Kb APE mRNA and GAPDH transcripts. FIG. 6B, HL-60 cells treated with 100 nM PMA.
Western blot analysis was performed as has been previously described (Wilson et al., 1994; 1995, FIG. 16). Whole cell extracts were electrophoresed on a 12% SDS-PAGE and electroblotted onto 0.2 micron nitrocellulose. The filter was incubated in blocking buffer which contains 5% non-fat milk for 1 hour. Next, the antibody (affinity purified APE) was diluted to the appropriate concentration (1:100) and incubated with the filter overnight at 4° C. The filter was washed in 1×TBST and incubated in TBST containing 5% milk and cross-reacting proteins were detected using the Chemiluminescence Western Blotting Kit from Boehringer-Mannheim (Indianapolis, Ind.) as directed. Western blot analysis of HeLa cell (human) or NIH3T3 (mouse) cells using antibody produced in rabbits or chickens are shown in FIG. 16. The antibodies were affinity purified and only a single cross-reacting protein is visible in the human or mouse cells. […]

[4] = tested on: HL-60-bcl-2 cells; test: as above; conditions: 10^-5 M RA, 1.25% DMSO or 100 nM PMA, compared to parental HL-60
Experimental: (§4) FIG. 7A and FIG. 7B: Expression of APE in HL-60-bcl-2 cells. FIG. 7A, HL-60-bcl-2 cells at 0, 2, 4, and 6 days after treatment with 10^−5 M RA or 1.25% DMSO, Western blot (top) probed with an affinity purified polyclonal rabbit anti-APE antibody. Northern blots (middle and bottom) probed for the 1.6 Kb APE and GAPDH transcripts. FIG. 7B, HL-60-bcl-2 cells treated with 100 nM PMA.
(§5) To ascertain whether APE expression was associated with differentiation or programmed cell death, the inventor blocked apoptosis by over-expression of the proto-oncogene bcl-2 using HL-60 cells transduced with the retroviral construct LbcI2SN (Park et al, 1994). […] The apparent decrease in APE transcript expression after 6 days exposure to RA or DMSO results from loading differences as evidenced by the GAPDH Northern control blot (FIG. 7). […] Thus constitutive expression of bcl-2 inhibits the decrease in APE expression as well as programmed cell death normally observed with granulocytic or monocytic/macrophage induced differentiation of HL-60 cells.

[5] = tested on: HL-60 cells; test: Northern blot of APE transcript after differentiation induction
Experimental: as §3
To investigate possible changes in expression of the DNA repair enzyme APE in differenntiating myeloid cells, the inventor utilized Northern and Western blot analysis with the HL-60 myeloid leukemia cell line, which can be induced to terminally differentiate into mature granulocytes or monocyte/macrophage (Collins, 1987). […] To determine whether the decrease in APE expression was confined to granulocytic differentiation, HL-60 cells were induced down the monocyte/macrophage pathway with PMA.

[6] = tested on: HL-60-bcl-2 cells; test: Northern blot of APE mRNA after differentiation induction; conditions: 10^-5 M RA, 1.25% DMSO or 100 nM PMA
Experimental: as §4, §5

[7] = tested on: HL-60 cells; test: RA-induced differentiation (morphology, CD11b, NBT reduction)
[8] = tested on: HL-60-bcl-2 cells; test: Viability of RA-induced granulocytes (trypan blue dye exclusion); conditions: HL-60+Lbcl2SN cells treated with RA, compared to parental HL-60 cells
Experimental: FIG. 10A and FIG. 10B: Enhanced viability of HL-60-bcl-2 granulocytes. HL60 and HL-60-bcl-2 cells were induced with RA (1 μmol/L) which was added at day 0. At the indicated days after RA treatment (FIG. 10A), cell number was determined using a hemocytometer chamber and (FIG. 10B) percentage of cell viability was determined by trypan blue dye exclusion. The indicated points represent the mean of triplicate experiments (▴) HL-60 wt; (◯) HL-60 Bcl2.
To determine whether cell differentiation and apoptosis were closely linked processes that could not be separated, the inventor over expressed the proto-oncogene bcl-2 in HL-60 cells to block apoptosis the 1.9 kB cDNA of bcl-2 was subcloned into the retroviral vector LXSN to produce Lbcl2SN. The ecotropic packaging cell line PE501 was transfected and used to transduce the amphotropic packaging cell line PA317. High titer clones of PA317+Lbcl2SN were selected for transduction of HL-60 cells to produce HL-60+Lbcl2SN. Several clones were screened by Northern blot analysis and one clone with high bcl-2 expression was chosen for study. […] These cells were assayed for programmed cell death using the TUNEL reaction to score individual cells and the diphenylamine assay to determine the total amount of DNA undergoing fragmentation. […] Thus myeloid cell differentiation and apoptosis are independent processes that can be separated.

[9] = tested on: HL-60-bcl-2 cells; test: RA-induced differentiation (morphology, CD11b, NBT reduction)
[10] = after 1 hour of TPA stimulation
[11] = arbitrary log scale 0 to 200, 18.5 U = doubling

| Compound | % fluorescein positive (TUNEL) ([1]; 2 days) | % fluorescein positive (TUNEL) ([1]; 4 days) | % fluorescein positive (TUNEL) ([1]; 6 days) | time after which statistically significant evidence of fragmented DNA became apparent ([1]; HL-60, DMSO) | % rhodamine positive (APE) ([2]; 2 days) | % rhodamine positive (APE) ([2]; 4 days) | time after which expression of APE started to fall (fewer rhodamine positive cells) ([2]; HL-60, DMSO) | APE protein expression (Western blot) ([3]; 10^-5 M RA or 1.25% DMSO, over 6 days, compared to ethanol treated controls) | APE protein expression (Western blot) [4] | APE transcript expression (Northern blot) ([5]; granulocytic induction with 10^-5 M RA or 1.25% DMSO, 0-6 days) | APE mRNA expression (Northern blot) [6] | APE protein expression (Western blot) ([3]; 100 nM PMA, after two days exposure) | APE transcript expression (Northern blot) ([5]; 100 nM PMA) | NBT (+), percentage of cells containing blue-black formazan deposits [7, 10] | CD11b (+), relative mean fluorescence [7, 11] | survival of mature granulocytes [8] | NBT (+), percentage of cells containing blue-black formazan deposits [9, 10] | CD11b (+), relative mean fluorescence [9, 11] |
| --- | --- | --- | --- | --- | --- | --- | --- | --- | --- | --- | --- | --- | --- | --- | --- | --- | --- | --- |
| C[S+](C)[O-] [DMSO] | 2.7% | 2.3% | 7% | 4 to 6 days | 34% | 0% | 2 days | nearly undectable | continuous expression | more rapid decrease to a lower level | similarly maintained | – | – | – | – | – | – | – |
| CCCCCCCCCCCCCC(=O)O[C@@H]1[C@@H](C)[C@@]2(O)[C@@H](C=C(CO)C[C@]3(O)C(=O)C(C)=C[C@@H]23)[C@@H]2C(C)(C)[C@]12OC(C)=O [PMA] | – | – | – | – | – | – | – | – | continuous expression | – | continuous expression | decreased to a very low level | Decreased expression | – | – | – | – | – |
| CC1=C(/C=C/C(C)=C/C=C/C(C)=C/C(=O)O)C(C)(C)CCC1 [RA, Retinoic Acid] | – | – | – | – | – | – | – | – | – | – | – | – | – | >90% | 105.4 U | up to 40 days | >90% | 107.9 U |
